# Columns and labels:
# Cbl-b (residues 36-427) = Cbl-b (residues 36-427) (Homo sapiens, UniProt Q13191); experiment: Cbl-b binding assay (SPR, Biacore T200); details: 20° C., 1:1 binding model
# Procedure, shortened: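 Affinities derived from global 1:1 steady-state or kinetic fits of double-referenced, solvent-corrected SPR data, 20 °C, NeutrAvidin-capture chip. Compound series (top 100 or 50 μM, 8–10 points) injected 50 s, 90–180 s dissociation. Asterisked values used 50 mM instead of 100 mM NaCl and 30 nM Src kinase.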
# Cbl-b [1] = target: T1, Cbl-b (Homo sapiens, UniProt Q13191); experiment: Cbl-b activity assay (Cbl-b inhibition assay), TR-FRET of Cbl-b interaction with UbcH5B-Ub; type: biochemical
# Procedure, shortened: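 TR-FRET readout of Cbl-b binding to Bodipy-fluorescein N-terminally labeled Ub conjugated to UbcH5B C85K, measured with compound present. After compound incubation, 60 nM Src kinase with 1 mM ATP and 5 mM MgCl2 (final) was added for 1.5 h, then a further 1 h incubation; asterisked values used 50 mM NaCl buffer and 30 nM Src.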
# Cbl-b [2] = target: T1, Cbl-b; experiment: Cbl-b inhibition assay (Cbl-b activity assay, FRET, Biological Example 1; 100 mM NaCl, 60 nM Src kinase); type: biochemical; details: upper bound stated in text lists; read-out: IC50 values in the Cbl-b inhibition assay of Biological Example 1
# Procedure, shortened: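 N-terminally biotinylated Avi-tagged Cbl-b was mixed with Src kinase, UbcH5B covalently conjugated to Bodipy-fluorescein ubiquitin, and streptavidin-terbium. Src phosphorylation lets Cbl-b bind UbcH5B-Ub, giving terbium-fluorescein FRET; inhibition is read as loss of FRET signal.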
# [3] = assay buffer with 100 mM NaCl, 60 nM Src kinase, read-out: Cbl-b activity IC50
# [4] = * assay buffer containing 50 mM NaCl instead of 100 mM NaCl and 30 nM Src kinase instead of 60 nM, read-out: Cbl-b activity IC50 (μM)*
# T1 sequence (Q13191 36-427): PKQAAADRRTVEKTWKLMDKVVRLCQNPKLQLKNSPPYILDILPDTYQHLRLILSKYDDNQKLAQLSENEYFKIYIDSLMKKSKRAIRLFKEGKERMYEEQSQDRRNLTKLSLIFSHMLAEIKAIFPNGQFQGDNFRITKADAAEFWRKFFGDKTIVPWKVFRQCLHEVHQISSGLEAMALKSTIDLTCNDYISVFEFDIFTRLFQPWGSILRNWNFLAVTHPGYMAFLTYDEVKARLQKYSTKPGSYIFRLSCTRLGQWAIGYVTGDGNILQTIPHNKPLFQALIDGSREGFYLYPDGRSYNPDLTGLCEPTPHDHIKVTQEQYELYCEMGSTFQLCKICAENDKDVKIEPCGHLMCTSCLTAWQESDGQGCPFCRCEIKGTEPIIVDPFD
# Cbl-b (residues 36-427), sequence (Q13191 36-427): as above
SMILES,Kd (Cbl-b (residues 36-427)) [µM],IC50 (Cbl-b [1]; [3]) [µM],IC50 (Cbl-b [2]) [µM],IC50 (Cbl-b [1]; [4]) [µM]
"CC(Cc1n[nH]cc1CO)c1cccc(N2Cc3c(cccc3C(F)(F)F)C2=O)c1 (centres unmarked) [Compound 271, 2-(3-(1-(4-(hydroxymethyl)-1H-pyrazol-3-yl)propan-2-yl)phenyl)-4-(trifluoromethyl)isoindolin-1-one]",3 to 10,3 to 10,≤ 10,–
"CCc1cccc(C(=O)Nc2cc([C@H](C)Sc3nncn3C)ccn2)n1 [Compound 123, (S)-6-ethyl-N-(4-(1-((4-methyl-4H-1,2,4-triazol-3-yl)thio)ethyl)pyridin-2-yl)picolinamide]",3 to 10,1 to 3,≤ 10,–
"C[C@H](Sc1nncn1C)c1cccc(NC(=O)c2cc(C(=O)NC[C@@H](C)O)ccn2)c1 [Compound 156, N^4-((R)-2-hydroxypropyl)-N^2-(3-((S)-1-((4-methyl-4H-1,2,4-triazol-3-yl)thio)ethyl)phenyl)pyridine-2,4-dicarboxamide]",3 to 10,3 to 10,≤ 10,–
"C[C@H](Sc1nncn1C)c1cccc(NC(=O)c2cccc(CF)n2)c1 [Compound 87, 6-(fluoromethyl)-N-[3-[(1S)-1-[(4-methyl-1,2,4-triazol-3-yl)sulfanyl]ethyl]phenyl]pyridine-2-carboxamide]",1 to 3,1 to 3,≤ 10,–
"CC(CO)Nc1cc(C(C)Sc2nncn2C)cc(N2Cc3c(cccc3C(F)(F)F)C2=O)n1 (centres unmarked) [Compound 176, 2-[6-[(2-hydroxy-1-methyl-ethyl)amino]-4-[1-[(4-methyl-1,2,4-triazol-3-yl)sulfanyl]ethyl]-2-pyridyl]-4-(trifluoromethyl)isoindolin-1-one]",1 to 3,0.301 to 1,≤ 1,–
"Cn1cnnc1C(F)(F)C(C)(O)c1cccc(N2Cc3c(cccc3C(F)(F)F)C2=O)c1 (centres unmarked) [Compound 295, 2-(3-(1,1-difluoro-2-hydroxy-1-(4-methyl-4H-1,2,4-triazol-3-yl)propan-2-yl)phenyl)-4-(trifluoromethyl)isoindolin-1-one]",1 to 3,3 to 10,≤ 10,–
"CC(C)c1nccc2c1CN(c1cccc([C@H](C)Cc3nncn3C)c1)C2=O [Compound 259, (R)-4-isopropyl-2-(3-(1-(4-methyl-4H-1,2,4-triazol-3-yl)propan-2-yl)phenyl)-2,3-dihydro-1H-pyrrolo[3,4-c]pyridin-1-one]",1 to 3,0.301 to 1,≤ 1,–
"Cc1cncc(C(=O)Nc2cccc([C@H](C)Sc3nncn3C)c2)n1 [Compound 82, (S)-6-methyl-N-(3-(1-((4-methyl-4H-1,2,4-triazol-3-yl)thio)ethyl)phenyl)pyrazine-2-carboxamide]",3 to 10,1 to 3,≤ 10,–
"CC(Sc1nncn1C)c1ccc(F)c(NC(=O)c2cccc(C(F)(F)F)n2)c1 (centres unmarked) [Compound 95, N-(2-fluoro-5-(1-((4-methyl-4H-1,2,4-triazol-3-yl)thio)ethyl)phenyl)-6-(trifluoromethyl)picolinamide]",1 to 3,1 to 3,≤ 10,–
"CC(Sc1nncn1C)c1cccc(N2Cc3ccc(Cl)cc3C2=O)c1 (centres unmarked) [Compound 163, 6-chloro-2-[3-[1-[(4-methyl-1,2,4-triazol-3-yl)sulfanyl]ethyl]phenyl]isoindolin-1-one]",3 to 10,3 to 10,≤ 10,3 to 10
"CC(c1cccc(NC(=O)c2ccc(CO)c(C3CC3)n2)c1)C(F)(F)c1nncn1C (centres unmarked) [Compound 287, 6-cyclopropyl-N-(3-(1,1-difluoro-1-(4-methyl-4H-1,2,4-triazol-3-yl)propan-2-yl)phenyl)-5-(hydroxymethyl)picolinamide]",1 to 3,0.1 to 0.3,≤ 0.5,–
"Cc1cnc(C(=O)Nc2cccc([C@H](C)Sc3nncn3C)c2)cc1C1CC1 [Compound 53, (S)-4-cyclopropyl-5-methyl-N-(3-(1-((4-methyl-4H-1,2,4-triazol-3-yl)thio)ethyl)phenyl)picolinamide]",3 to 10,3 to 10,≤ 10,–
"CO[C@@H]1CCN(C(=O)c2ccnc(C(=O)Nc3cccc([C@H](C)Sc4nncn4C)c3)c2)C1 [Compound 141, 4-((R)-3-methoxypyrrolidine-1-carbonyl)-N-(3-((S)-1-((4-methyl-4H-1,2,4-triazol-3-yl)thio)ethyl)phenyl)picolinamide]",3 to 10,3 to 10,≤ 10,–
"C[C@H](Sc1nncn1C)c1cccc(NC(=O)c2cc(C(=O)N3CCCC3)ccn2)c1 [Compound 138, (S)-N-(3-(1-((4-methyl-4H-1,2,4-triazol-3-yl)thio)ethyl)phenyl)-4-(pyrrolidine-1-carbonyl)picolinamide]",> 10,3 to 10,≤ 10,–
"C[C@H](Sc1nncn1C)c1cccc(NC(=O)c2cc(C(=O)N3CCC3)ccn2)c1 [Compound 143, (S)-4-(azetidine-1-carbonyl)-N-(3-(1-((4-methyl-4H-1,2,4-triazol-3-yl)thio)ethyl)phenyl)picolinamide]",3 to 10,3 to 10,≤ 10,–
"C[C@@H](Sc1nncn1C)c1ccc(F)c(NC(=O)c2cccc(C(F)(F)F)n2)c1 [Compound 95b, (R)-N-(2-fluoro-5-(1-((4-methyl-4H-1,2,4-triazol-3-yl)thio)ethyl)phenyl)-6-(trifluoromethyl)picolinamide]",> 10,3 to 10,≤ 10,–
"C[C@H](Sc1nncn1C)c1cccc(NC(=O)c2cccc(-c3ccnn3C)c2)c1 [Compound 45, 3-(1-Methyl-1H-pyrazol-5-yl)-N-[3-[(1S)-1-[(4-methyl-4H-1,2,4-triazol-3-yl)sulfanyl]ethyl]phenyl]benzamide]",3 to 10,3 to 10,≤ 10,–
"C=CCC(Sc1nncn1C)c1cccc(NC(=O)c2cc3ccccc3cn2)c1 (centres unmarked) [Compound 135, N-[3-[1-[(4-methyl-1,2,4-triazol-3-yl)sulfanyl]but-3-enyl]phenyl]isoquinoline-3-carboxamide]",> 10,1 to 3,≤ 10,3 to 10
"C[C@H](Sc1nncn1C)c1ccnc(NC(=O)c2cccc(C3CC3)n2)c1 [Compound 117, 6-cyclopropyl-N-[4-[(1S)-1-[(4-methyl-1,2,4-triazol-3-yl)sulfanyl]ethyl]-2-pyridyl]pyridine-2-carboxamide]",3 to 10,1 to 3,≤ 10,–
"C[C@H](Cc1nncn1C)c1cccc(NC(=O)c2cc(C(=O)N3CC[C@](C)(N)C3)ccn2)c1 [Compound 229, 4-((S)-3-amino-3-methylpyrrolidine-1-carbonyl)-N-(3-((R)-1-(4-methyl-4H-1,2,4-triazol-3-yl)propan-2-yl)phenyl)picolinamide]",1 to 3,1 to 3,≤ 10,–
"C[C@H](Cc1nncn1C)c1cccc(NC(=O)c2cc(C(F)(F)F)ccn2)c1 [Compound 184, (R)-N-(3-(1-(4-methyl-4H-1,2,4-triazol-3-yl)propan-2-yl)phenyl)-4-(trifluoromethyl)picolinamide]",3 to 10,1 to 3,≤ 10,–
"C[C@H](Cc1nncn1C)c1cccc(NC(=O)c2cc(C(=O)NCC(C)(C)O)ccn2)c1 [Compound 226, (R)-N^4-(2-hydroxy-2-methylpropyl)-N^2-(3-(1-(4-methyl-4H-1,2,4-triazol-3-yl)propan-2-yl)phenyl)pyridine-2,4-dicarboxamide]",3 to 10,3 to 10,≤ 10,–
"C[C@H](Cc1nccn1C)c1cccc(N2Cc3c(cccc3C(F)(F)F)C2=O)c1 [Compound 267a, (R)-2-(3-(1-(1-methyl-1H-imidazol-2-yl)propan-2-yl)phenyl)-4-(trifluoromethyl)isoindolin-1-one]",3 to 10,1 to 3,≤ 10,–
"C[C@H](Cc1nncn1C)c1cccc(NC(=O)c2cc(C(=O)N3CC[C@H](O)C3)ccc2F)c1 [Compound 254, 2-fluoro-5-((S)-3-hydroxypyrrolidine-1-carbonyl)-N-(3-((R)-1-(4-methyl-4H-1,2,4-triazol-3-yl)propan-2-yl)phenyl)benzamide]",3 to 10,1 to 3,≤ 10,–
"C[C@H](Cc1nncn1C)c1cccc(N2Cc3c(cc(C(=O)O)cc3C(F)(F)F)C2=O)c1 [Compound 273, (R)-2-(3-(1-(4-methyl-4H-1,2,4-triazol-3-yl)propan-2-yl)phenyl)-3-oxo-7-(trifluoromethyl)isoindoline-5-carboxylic acid]",3 to 10,1 to 3,≤ 10,–
"C[C@H](Cc1nncn1C)c1cccc(NC(=O)c2cc(N[C@@H]3CC[C@H](O)C3)ccn2)c1 [Compound 204, 4-((1R,3S)-3-hydroxycyclopentylamino)-N-(3-((R)-1-(4-methyl-4H-1,2,4-triazol-3-yl)propan-2-yl)phenyl)picolinamide]",1 to 3,1 to 3,≤ 10,–
